Assay results as given in PubChem BioAssay AID328 (DTP/NCI, 2004).
Values joined by “and” are separate entries in the source; they are usually repeats but may differ in a detail not shown here. Equal values may be shown once. Inconclusive results and toxic doses are left out.

System: BDF1 mice, P388 leukemia ip, median survival T/C
Test: NCI In Vivo Anticancer Drug Screen. Data for tumor model P388 Leukemia (intraperitoneal) in B6D2F1 (BDF1) mice
Conditions: endpoint: median survival time, higher = longer survival
Outline: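 Each value expresses how treatment altered survival: treated-mouse outcome over vehicle-mouse outcome, both groups bearing the transplanted tumour.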

[1] = dose: 50.0 mg/kg/injection, schedule: Q01DX009 (ip), vehicle: saline
[2] = dose: 100.0 mg/kg/injection, schedule: Q01DX009 (ip), vehicle: saline
[3] = dose: 50.0 mg/kg/injection, schedule: Q01DX009 (ip), vehicle: Klucel (hydroxypropylcellulose) (HPC)
[4] = dose: 100.0 mg/kg/injection, schedule: Q01DX009 (ip), vehicle: Klucel (hydroxypropylcellulose) (HPC)
[5] = dose: 200.0 mg/kg/injection, schedule: Q01DX009 (ip), vehicle: Klucel (hydroxypropylcellulose) (HPC)
[6] = dose: 100.0 mg/kg/injection, schedule: Q04DX003 (ip), vehicle: saline with Tween-80
[7] = dose: 200.0 mg/kg/injection, schedule: Q04DX003 (ip), vehicle: saline with Tween-80
[8] = dose: 100.0 mg/kg/injection, schedule: Q04DX003 (ip), vehicle: Klucel (hydroxypropylcellulose) (HPC)
[9] = dose: 200.0 mg/kg/injection, schedule: Q04DX003 (ip), vehicle: Klucel (hydroxypropylcellulose) (HPC)
[10] = dose: 400.0 mg/kg/injection, schedule: Q04DX003 (ip), vehicle: Klucel (hydroxypropylcellulose) (HPC)
[11] = dose: 50.0 mg/kg/injection, schedule: Q04DX003 (ip), vehicle: saline with Tween-80
[12] = dose: 25.0 mg/kg/injection, schedule: Q01DX009 (ip), vehicle: saline
[13] = dose: 12.5 mg/kg/injection, schedule: Q04DX003 (ip), vehicle: water
[14] = dose: 25.0 mg/kg/injection, schedule: Q04DX003 (ip), vehicle: water
[15] = dose: 50.0 mg/kg/injection, schedule: Q04DX003 (ip), vehicle: water
[16] = dose: 100.0 mg/kg/injection, schedule: Q01DX009 (ip), vehicle: water
[17] = dose: 100.0 mg/kg/injection, schedule: Q04DX003 (ip), vehicle: water
[18] = dose: 200.0 mg/kg/injection, schedule: Q01DX009 (ip), vehicle: water
[19] = dose: 400.0 mg/kg/injection, schedule: Q01DX009 (ip), vehicle: water

O=C1C=CN(C2OC(CO)C(O)C2O)C(=O)C1 (stereo unspecified)
T/C (dose: 22.0 mg/kg/injection, schedule: Q01DX009 (ip), vehicle: saline): 103 % of control | T/C (dose: 33.0 mg/kg/injection, schedule: Q01DX009 (ip), vehicle: saline): 107 % of control | T/C [1]: 87 % of control and 101 % of control (2×) | T/C (dose: 75.0 mg/kg/injection, schedule: Q01DX009 (ip), vehicle: saline): 110 % of control | T/C [2]: 87 % of control | T/C (dose: 200.0 mg/kg/injection, schedule: Q01DX009 (ip), vehicle: saline): 91 % of control | T/C (dose: 400.0 mg/kg/injection, schedule: Q01DX009 (ip), vehicle: saline): 100 % of control

COc1cccc(NC(=O)N2CCCCC2)c1
T/C (dose: 25.0 mg/kg/injection, schedule: Q01DX009 (ip), vehicle: Klucel (hydroxypropylcellulose) (HPC)): 111 % of control | T/C [3]: 111 % of control | T/C [4]: 114 % of control | T/C [5]: 114 % of control

O=S1(=O)CCN(C2CCCCCCCCCCC2)CC1
T/C [3]: 108 % of control | T/C [4]: 106 % of control | T/C [5]: 101 % of control

CCOC(=O)C(C)(C(=O)OCC)c1ccccc1
T/C (dose: 100.0 mg/kg/injection, schedule: Q01DX009 (ip), vehicle: saline with Tween-80): 104 % of control | T/C [6]: 115 % of control | T/C (dose: 200.0 mg/kg/injection, schedule: Q01DX009 (ip), vehicle: saline with Tween-80): 113 % of control | T/C [7]: 110 % of control | T/C (dose: 400.0 mg/kg/injection, schedule: Q01DX009 (ip), vehicle: saline with Tween-80): 118 % of control | T/C (dose: 400.0 mg/kg/injection, schedule: Q04DX003 (ip), vehicle: saline with Tween-80): 115 % of control

Cc1ccccc1/C=C1\CC(C)(C)c2ccccc2C1=O
T/C [4]: 100 % of control | T/C [8]: 95 % of control | T/C [5]: 95 % of control | T/C [9]: 95 % of control | T/C (dose: 400.0 mg/kg/injection, schedule: Q01DX009 (ip), vehicle: Klucel (hydroxypropylcellulose) (HPC)): 104 % of control | T/C [10]: 95 % of control

Clc1nc(SC2=NCCN2)c2[nH]cnc2n1
T/C (dose: 12.5 mg/kg/injection, schedule: Q04DX003 (ip), vehicle: saline with Tween-80): 108 % of control | T/C (dose: 33.0 mg/kg/injection, schedule: Q04DX003 (ip), vehicle: saline with Tween-80): 118 % of control | T/C [11]: 154 % of control

C=C1C(O)C2(O)OCC34C(CC5C(C)=CC(=O)C(OC)C5(C)C23)OC(=O)C(OC(=O)C(C)CC)C14 (stereo unspecified)
T/C (dose: 0.06 mg/kg/injection, schedule: Q01DX009 (ip), vehicle: saline with Tween-80): 98 % of control | T/C (dose: 0.12 mg/kg/injection, schedule: Q01DX009 (ip), vehicle: saline with Tween-80): 112 % of control | T/C (dose: 0.25 mg/kg/injection, schedule: Q01DX009 (ip), vehicle: saline with Tween-80): 105 % of control | T/C (dose: 0.5 mg/kg/injection, schedule: Q01DX009 (ip), vehicle: saline with Tween-80): 110 % of control | T/C (dose: 1.0 mg/kg/injection, schedule: Q01DX009 (ip), vehicle: saline with Tween-80): 120 % of control | T/C (dose: 2.0 mg/kg/injection, schedule: Q01DX009 (ip), vehicle: saline with Tween-80): 115 % of control

C#CC(OC(=O)NC1CCCCC1)(c1ccccc1)c1ccccc1
T/C (dose: 16.5 mg/kg/injection, schedule: Q01DX009 (ip), vehicle: saline with Tween-80): 98 % of control | T/C (dose: 25.0 mg/kg/injection, schedule: Q01DX009 (ip), vehicle: saline with Tween-80): 215 % of control | T/C (dose: 37.5 mg/kg/injection, schedule: Q01DX009 (ip), vehicle: saline with Tween-80): 213 % of control | T/C (dose: 50.0 mg/kg/injection, schedule: Q01DX009 (ip), vehicle: saline with Tween-80): 190 % of control | T/C (dose: 88.0 mg/kg/injection, schedule: Q04DX003 (ip), vehicle: saline with Tween-80): 183 % of control | T/C (dose: 132.0 mg/kg/injection, schedule: Q04DX003 (ip), vehicle: saline with Tween-80): 187 % of control | T/C [7]: 116 % of control

NC(N)=NCCCCC(=O)Nc1ccc(S(N)(=O)=O)cc1
T/C [12]: 97 % of control | T/C [1]: 112 % of control | T/C [2]: 110 % of control

CN(CCS)Cc1ccccc1
T/C (dose: 25.0 mg/kg/injection, schedule: Q04DX003 (ip), vehicle: saline with Tween-80): 100 % of control | T/C [11]: 104 % of control | T/C [6]: 100 % of control

CCOC(=O)Nc1cncc(NC(=O)OCC)n1
T/C (dose: 6.25 mg/kg/injection, schedule: Q04DX003 (ip), vehicle: water): 106 % of control | T/C [13]: 100 % of control | T/C (dose: 25.0 mg/kg/injection, schedule: Q01DX009 (ip), vehicle: water): 100 % of control | T/C [14]: 105 % of control | T/C (dose: 50.0 mg/kg/injection, schedule: Q01DX009 (ip), vehicle: water): 101 % of control | T/C [15]: 101 % of control | T/C [16]: 93 % of control | T/C [17]: 100 % of control | T/C [18]: 95 % of control | T/C [19]: 87 % of control

COC(=O)CCC#CC#CCCC(=O)OC
T/C [8]: 109 % of control | T/C [9]: 104 % of control | T/C [10]: 109 % of control

CCCCCCCCCCCCCCCCCCCCCCCCCCCC(=O)OCC(O)CO (stereo unspecified)
T/C (dose: 0.25 mg/kg/injection, schedule: Q01DX009 (ip), vehicle: saline + alcohol): 110 % of control | T/C (dose: 1.0 mg/kg/injection, schedule: Q01DX009 (ip), vehicle: saline + alcohol): 105 % of control

C[n+]1ccc(Nc2ccc(NC(=O)c3ccc(N)cc3)cc2)cc1
T/C (dose: 12.5 mg/kg/injection, schedule: Q01DX009 (ip), vehicle: water): 101 % of control | T/C [13]: 100 % of control | T/C [14]: 98 % of control | T/C [15]: 100 % of control and 106 % of control | T/C [16]: 155 % of control | T/C [17]: 116 % of control and 117 % of control | T/C [18]: 154 % of control | T/C [19]: 180 % of control | T/C (dose: 500.0 mg/kg/injection, schedule: Q04DX003 (ip), vehicle: water): 123 % of control | T/C (dose: 600.0 mg/kg/injection, schedule: Q04DX003 (ip), vehicle: water): 103 % of control

CC(C)=CC(=O)OCC1CC[N+](C)(C)C1 (stereo unspecified)
T/C [12]: 111 % of control | T/C [1]: 100 % of control

Nc1ncnc2c1ncn2C1CC(O)C(CO)O1 (stereo unspecified)
T/C (dose: 440.0 mg/kg/injection, schedule: Q01DX009 (ip), vehicle: saline with Tween-80): 93 % of control | T/C (dose: 660.0 mg/kg/injection, schedule: Q01DX009 (ip), vehicle: saline with Tween-80): 93 % of control | T/C (dose: 1000.0 mg/kg/injection, schedule: Q01DX009 (ip), vehicle: saline with Tween-80): 105 % of control

NOCc1cccc(C(F)(F)F)c1
T/C (dose: 75.0 mg/kg/injection, schedule: Q04DX003 (ip), vehicle: saline): 91 % of control | T/C (dose: 150.0 mg/kg/injection, schedule: Q04DX003 (ip), vehicle: saline): 91 % of control | T/C (dose: 300.0 mg/kg/injection, schedule: Q04DX003 (ip), vehicle: saline): 91 % of control
